Assay results from article PMC6050537, “Inhibition of low-density lipoprotein receptor degradation with a cyclic peptide that disrupts the homodimerization of IDOL E3 ubiquitin ligase” (Chemical Science, 2018).
Residues, ends and D or L forms follow the SMILES beside them.

Key:
[1] = test system: IDOL homodimerization (434-IDOL fusion) in IDOL RTHS; assay: IDOL bacterial reverse two-hybrid system (RTHS) drop-spotting; assay type: cell-based, E. coli; conditions: SICLOPPS-encoded peptide, IPTG 25 μM plus arabinose
Source text: We used a previously reported genetically encoded high-throughput screening platform that combines a bacterial reverse two-hybrid system (RTHS)[21],[23]–[25] with a plasmid-encoded library of 3.2 million cyclic hexapeptides using split intein circular ligation of peptides and proteins (SICLOPPS).[26],[27] We began by constructing a bacterial RTHS for IDOL homodimerization. IDOL is expressed as an N-terminal fusion with the 434 bacteriophage repressor, with the 38 amino acid disordered region of the 434 repressor acting as linker. IDOL homodimerization is expected to bring together two 434 proteins to form a functional repressor that binds to the operator sites engineered onto the E. coli chromosome, and prevent the expression of 3 genes downstream that are required for growth and survival on selective media (Fig. 1a). We verified the formation of a functional repressor and suppression of growth on selective media upon IDOL homodimerization by drop-spotting (Fig. 1b), and by ONPG assay (ESI Fig. 1 ^†) as previously detailed.[21] A SICLOPPS CXXXXX library (where X = any canonical amino acid) was prepared as previously detailed[28] and transformed into the IDOL RTHS prior to plating on selective media. After incubation of the selection plates for 48 h, 480 surviving colonies were picked and individually assessed for arabinose-dependent survival on selective media by drop-spotting. […]

[2] = target: T1, 6× His-tagged, full-length IDOL (Homo sapiens, UniProt Q8WY64); assay: Surface plasmon resonance (SPR) affinity for IDOL; assay type: binding; conditions: SPR, immobilized full-length His-IDOL; saturation at highest concentrations not observed; read-out: Kd
T1 construct: Full length IDOL (1–445) was cloned with a TEV cleavable N-terminal 6xHis tag; made in house; host or cells: Spodoptera frugiperda Sf21 (baculovirus, pFastbac1)
T1 sequence (Q8WY64 1-445): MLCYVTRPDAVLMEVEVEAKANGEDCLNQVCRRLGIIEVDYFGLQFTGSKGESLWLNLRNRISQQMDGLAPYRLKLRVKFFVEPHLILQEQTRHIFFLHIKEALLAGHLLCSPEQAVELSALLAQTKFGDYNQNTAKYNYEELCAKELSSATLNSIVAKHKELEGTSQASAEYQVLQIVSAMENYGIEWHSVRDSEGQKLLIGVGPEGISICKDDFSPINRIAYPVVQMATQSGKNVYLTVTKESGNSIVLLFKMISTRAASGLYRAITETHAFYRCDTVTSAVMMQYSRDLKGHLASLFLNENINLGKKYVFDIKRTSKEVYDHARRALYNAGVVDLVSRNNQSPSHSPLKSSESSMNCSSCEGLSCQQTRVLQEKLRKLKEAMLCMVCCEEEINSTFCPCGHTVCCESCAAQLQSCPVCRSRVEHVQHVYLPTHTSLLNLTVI
Source text: We initially assessed the affinity of the 6 selected cyclic peptides for IDOL by surface plasmon resonance (SPR). Although saturation at the highest concentrations was not observed, due to hydrophobic effects, Kd values could be determined for five peptides (Table 1). […] The hit rate for our IDOL screen is in line with that for previous SICLOPPS screens.[21],[25] It should be noted that although cyclo-CTIFLL and cyclo-CTLILF contain the same amino acids, changing the order in which these are arranged results in activity loss.
All measurements were performed on a Biacore S200 (GE healthcare) using running buffer 10 mM HEPES, 300 mM NaCl, 1 mM TCEP, 0.05% Tween 20 and 4% DMSO at pH 8.0. In brief, 6× His-tagged, full-length IDOL was immobilized on a NTA-chip (Xantec), to a final level of ∼6000 RU. The chip was pre-loaded with Ni^2+ to facilitate efficient capture of His-tagged protein onto the chip. The activity of the immobilized protein was confirmed using a reference compound.
Supplementary Figure 2. […] Saturation of binding was not observed due to the hydrophobic nature of the peptides
(1 picture or pasted object on this page, not shown here)

[3] = test system: T2, FERM domain of IDOL; assay: 1H 15N HSQC NMR binding to FERM domain (negative control)
T2 construct: made in house; host or cells: E. coli BL21
Source text: (§1) The lead candidates, cyclo-CTIFLL and cyclo-CFFLYT, were next analyzed for binding to the RING domain of IDOL by ^1H ^15N HSQC NMR. We also assessed the binding of each peptide to the FERM domain of IDOL as a negative control. […] It should be noted that the 3 residues affected by cyclo-CFFLYT (named RINGPep1) form part of the PPI interface in the crystal structure of the homodimerized RING domains of IDOL (Fig. 1c and ESI Fig. 6 ^†).[15] Furthermore, mutation of V431R coupled with a L433R mutation is known to result in a dimer deficient IDOL.[15]
(§2) ^15N-labeled RING and FERM domains were prepared for NMR experiments by buffer exchange using Amicon Ultra-4 Centrifugal Filter Units with 3 kDa molecular weight cut-off membranes. Buffer conditions for the NMR studies were 50 mM TRIS-d11 pH 7.5, 200 mM NaCl, 3 mM TCEP, 10% (v/v) D2O for the RING domain and 25 mM TRIS-d11, 25 mM NaPi, pH 7.5, 300 mM NaCl, 3 mM TCEP, 10% (v/v) D2O for the FERM domain. The protein concentrations were 80 μM and 70 μM, for the RING and FERM domain respectively. Two-dimensional NMR SOFAST-HMQC titration experiments were carried out on a Bruker 600 MHz spectrometer equipped with a cryoprobe. […]

[4] = test system: T3, RING domain of IDOL; assay: 1H 15N HSQC NMR binding to RING domain
T3 construct: IDOL RING domain (G356-I445) was expressed as TEV cleavable N-terminal HN6-Lysine-Tag; HN6-Lysine-Tag (TEV-cleavable) (N); made in house; host or cells: E. coli (pET vector)
Source text: as §1, §2

For CC(C)C[C@@H]1NC(=O)[C@H](Cc2ccccc2)NC(=O)[C@H](Cc2ccccc2)NC(=O)[C@H](CS)NC(=O)[C@H]([C@@H](C)O)NC(=O)[C@H](Cc2ccc(O)cc2)NC1=O [RINGPep1, cyclo-CFFLYT] (HELM PEPTIDE1{C.F.F.L.Y.T}$PEPTIDE1,PEPTIDE1,1:R1-6:R2$$$V2.0), the “growth of IDOL RTHS on selective media” value [1] was “restored”, the Kd [2] was 38.5 ± 34.8 µM and the “chemical shift changes, FERM domain of IDOL” value [3] was “No changes”. For the same compound, the “chemical shift changes, RING domain of IDOL” value [4] was “modest chemical shift changes for 3 amino acids”.
